Experiments:
[1] = tested on: 129S6/SvEv mice; assay: Forced swim test (FST) after CFC; assay type: in vivo
Method: (§1) This chronic CORT elevation dysregulates the hypothalamic-pituitary-adrenal axis (HPA) in a manner similar to that observed in clinical depression. The dose and duration of CORT treatment was selected based on previous studies. CORT (35 μg/ml, equivalent to about 5 mg/kg/day) dissolved in 0.45% hydroxypropyl-o-cyclodextrin (0-CD) or vehicle (VEH) (0.45% j-CD) was available ad libitum in the drinking water in opaque bottles to protect it from light. VEH- and CORT-treated water was changed every 3 days to prevent possible degradation. Contextual Fear Conditioning (CFC): A 3-shock CFC procedure was administered as previously published. Briefly, mice were placed into context A and administered 3 2-s shocks (0.75 mA) at 180 s, 240 s or 300 s following placement into context A. Mice were removed from the context 15 s following the termination of shock (at 317 s). For context retrieval, mice were placed back into context A for 300 s. Electrophysiology: Electrophysiology was conducted as previously described. Statistical Analysis: Results from data analyses are expressed as means±SEM. Alpha was set to 0.05 for all analyses. Data were analyzed using GraphPad Prism v7.0 or v8.0. For all experiments, unless otherwise noted, one- or two-way ANOVAs with repeated-measures were applied to the data as appropriate. Significant main effects and/or interactions were followed by Fisher's PLSD post hoc analysis or unpaired t-tests. Drugs: All drugs were prepared in physiological saline and all injections were administered intraperitoneally (i.p.) in volumes of 0.1 cc per […] body weight unless otherwise noted. Fluoxetine hydrochloride (Flx): Flx (BioTrend Chemicals AG, BG197, Zurich, Germany) was administered in the drinking water (18 mg/kg/day) for 3 weeks before the start of CORT. […] (R,S)-ketamine (K): (R,S)-ketamine (Ketaset III, Ketamine HCl injection, Fort Dodge Animal Health, Fort Dodge, Iowa) was administered in a single dose at 30 mg/kg of body weight 1 week before the start of CFC. […] PF-04995274: PF-04995274 (Sigma, Catalog No. 1331782-27-4, St. Louis, Mo.) was administered a single dose at 3 or 10 mg/kg of body weight 1 week before the start of CFC. PF-04995274 was dissolved in saline using an ultrasonic homogenizer (BioLogics, Model 3000, Manassas, Va.). Osmotic minipump implantation: ALZET osmotic minipumps (Model 2004, […], 28 days) were implanted subcutaneously under isoflurane anesthesia as previously described [S2]. Osmotic minipumps were rotated under the skin two to three times per week. Behavioral Assays: All experiments were approved by the Institutional Animal Care and Use Committee (IACUC) at the New York Psychiatric Institute (NYSPI). Elevated Plus Maze (EPM): Testing was performed as previously described [S3]. Briefly, the maze is a plus-cross-shaped apparatus consisting of four arms, two open and two enclosed by walls, linked by a central platform at a height of 50 cm from the floor. Mice were individually placed in the center of the maze facing an open arm and were allowed to explore the maze for 5 min. The time spent in and the number of entries into the open arms was used as an anxiety index. Videos were scored using ANY-maze behavior tracking software (Stoelting, Wood Dale, Ill.). Novelty-Suppressed Feeding: The NSF is a conflict test that elicits competing motivations: the drive to eat and the fear of venturing into the center of a brightly lit arena. The latency to feed is used as an index of anxiety-like behavior, because classical anxiolytic drugs decrease this measure. The NSF test was carried out during an 8 min period as previously described [S3]. Briefly, the testing apparatus consisted of a plastic box (50×50×20 cm), the floor of which was covered with approximately 2 cm of bedding. For 129S6/SvEv experiments, mice were food restricted for 12 h. For the C57BL/6N experiments, mice were food restricted for 24 h. […]

[2] = tested on: CA3 pyramidal cells; assay: Whole-cell voltage clamp recordings of spontaneous EPSCs in CA3 slices; assay type: cell-based, mice; conditions: (R,S)-ketamine 30 mg/kg or prucalopride 3 mg/kg injected 1 week before slicing
Method: as §1

[3] = tested on: 129S6/SvEv mice; assay: 3-shock contextual fear conditioning (CFC); assay type: in vivo
Method: as §1

[4] = tested on: BALB/cJRj mice; assay: Elevated plus maze (EPM), acute anxiolytic-like effect; assay type: in vivo; conditions: GR125487 1 mg/kg i.p. 15 min before RS67333 1.5 mg/kg i.p.
Method: (§2) RS67333 (1.5 mg/kg, i.p.), diazepam (1.5 mg/kg, i.p.), fluoxetine (18 mg/kg, i.p.) were injected 45 min before testing in the Elevated Plus Maze (EPM), the Novelty Suppressed Feeding (NSF) or the Open Field (OF) in three independent cohorts of male BALB/cJRj mice.
(§3) To ensure the selectivity of the anxiolytic-like effects of RS67333, in a new cohort of male BALB/cJRj mice, GR125487 (1.0 mg/kg, i.p.) dissolved in 0.9% NaCl solution, was injected 15 minutes before RS67333 administration (1.5 mg/kg, i.p.). EPM or NSF occurred 45 min after RS67333 administration (A-S1). Behavioral consequences of the co-administration of GR125487+RS67333 were compared to RS67333 alone, diazepam (1.5 mg/kg, i.p.) fluoxetine (18 mg/kg, i.p.) and vehicle groups (0.9% saline solution, i.p.).
(§4) For mPFC drug infusion, two bilateral cannulae (75 μm-diameter silica capillary tubing inserted in 27G stainless steel catheter) were implanted in the mPFC [stereotaxic coordinates in mm from bregma: A=+2.10, L=±0.50, V=−2.60, A, anterior; L, lateral; and V, ventral, according to (A-S10)] under anesthesia (chloral hydrate, 400 mg/kg, i.p.). […] Diazepam (1.5 mg/kg) was used as a positive control.
In a new cohort of male BALB/cJRj mice, p-CPA was administered twice daily (at 0900 and 1700 h) for 3 consecutive days. RS67333 ([…]) and diazepam ([…]) were then intra-mPFC administered 24 h after the final p-CPA administration and behavioral test (EPM) occurred 45 minutes after local infusion.
The EPM is a widely used behavioral assay for rodents and it has been validated to assess the anti-anxiety effects of pharmacological agents (A-S11). This test was performed as described by (A-S1). The maze is a plus-cross-shaped apparatus, with two open arms and two arms closed by walls linked by a central platform 50 cm above the floor. Mice were individually put in the center of the maze facing an open arm and were allowed to explore the maze during 5 min for the behavioral consequences of an acute systemic administration or mPFC infusion and during 6 min for the optogenetic experiments. The time spent in and the numbers of entries into the open arms were used as an anxiety index. All parameters were measured using a videotracker (EPM3C, Bioseb, Vitrolles, France).

[5] = tested on: BALB/cJRj mice; assay: Novelty suppressed feeding (NSF), acute anxiolytic-like effect; assay type: in vivo; conditions: GR125487 1 mg/kg i.p. 15 min before RS67333 1.5 mg/kg i.p.
Method: as §2, §3, §4
The NSF is a conflict test that elicits competing motivations: the drive to eat and the fear of venturing into the center of a brightly lit arena. The latency to begin eating is used as an index of anxiety/depression-like behavior, because classical anxiolytic drugs as well as chronic antidepressants decrease this measure. The NSF test was carried out during a 10 min period as previously described (A-S12). Briefly, the testing apparatus consisted of a plastic box (50×50×20 cm), the floor of which was covered with approximately 2 cm of wooden bedding. Twenty-four hours prior to behavioral testing, all food was removed from the home cage. At the time of testing, a single pellet of food (regular chow) was placed on a white paper platform positioned in the center of the box. Each animal was placed in a corner of the box, and a stopwatch was immediately started. The latency to eat (defined as the mouse sitting on its haunches and biting the pellet with the use of forepaws) was timed. Immediately afterwards, the animal was transferred to its home cage, and the amount of food consumed by the mouse in the subsequent 5 min was measured, serving as a control for change in appetite as a possible confounding factor.

[6] = FIG. 4 cohort, Male, FIG. 4F, RMANOVA, Fisher's LSD
[7] = FIG. 4 cohort, Male, FIG. 4G, ANOVA, Fisher's LSD
[8] = FIG. 4 cohort, Male, FIG. 4C, RMANOVA, Fisher's LSD
[9] = FIG. 4 cohort, Male, FIG. 4D, ANOVA, Fisher's LSD

Q: With CNC1(c2ccccc2Cl)CCCCC1=O (racemic) [(R,S)-ketamine] as the compound, how does the “p, FST Day 2 Immobility Time (sec), (R,S)-ketamine (30 mg/kg) vs. PF04995274 (3 mg/kg)” value [1, 6] read?
A: 0.4094

Q: And the “p, FST Day 2 Immobility Time (sec), (R,S)-ketamine (30 mg/kg) vs. PF04995274 (10 mg/kg)” value [1, 6]?
A: 0.3813

Q: And the “p, FST Day 2 Immobility Time (sec), (R,S)-ketamine (30 mg/kg) vs. Prucalopride (3 mg/kg)” value [1, 6]?
A: 0.8332

Q: And the “p, FST Day 2 Immobility Time (sec), (R,S)-ketamine (30 mg/kg) vs. Prucalopride (10 mg/kg)” value [1, 6]?
A: 0.1712

Q: What about the “p, FST Day 2 Immobility Time (sec), Saline vs. (R,S)-ketamine (30 mg/kg)” value [1, 6] of the same compound?
A: 0.0218

Q: And the “p, FST Day 2 Immobility Time (min 3-6) (sec), (R,S)-ketamine (30 mg/kg) vs. PF04995274 (3 mg/kg)” value [1, 7]?
A: 0.5815

Q: And the “p, FST Day 2 Immobility Time (min 3-6) (sec), (R,S)-ketamine (30 mg/kg) vs. PF04995274 (10 mg/kg)” value [1, 7]?
A: 0.3207

Q: What about the “p, FST Day 2 Immobility Time (min 3-6) (sec), (R,S)-ketamine (30 mg/kg) vs. Prucalopride (3 mg/kg)” value [1, 7] of the same compound?
A: 0.8478

Q: And the “p, FST Day 2 Immobility Time (min 3-6) (sec), (R,S)-ketamine (30 mg/kg) vs. Prucalopride (10 mg/kg)” value [1, 7]?
A: 0.1763

Q: What about the “p, FST Day 2 Immobility Time (min 3-6) (sec), Saline vs. (R,S)-ketamine (30 mg/kg)” value [1, 7] of the same compound?
A: 0.0330

Q: And the “immobility, FST day 1” value ([1]; male 129S6/SvEv, (R,S)-ketamine 30, prucalopride 3 or 10, PF-04995274 3 or 10 mg/kg)?
A: comparable levels of immobility

Q: And the “immobility time, FST day 2 vs saline” value ([1]; male 129S6/SvEv, single injection 1 week before CFC, 30 mg/kg)?
A: decreased immobility time

Q: And the “average EPSC amplitude vs saline” value [2]?
A: no differences

Q: And the “large AMPA receptor-mediated bursts of EPSCs” value [2]?
A: not present

Q: And the “number of EPSCs vs saline” value [2]?
A: no differences

Q: What about the “p, CFC Re-exposure Freezing (%), (R,S)-ketamine (30 mg/kg) vs. PF04995274 (3 mg/kg)” value [3, 8] of the same compound?
A: 0.1027

Q: And the “p, CFC Re-exposure Freezing (%), (R,S)-ketamine (30 mg/kg) vs. PF04995274 (10 mg/kg)” value [3, 8]?
A: 0.8015

Q: What about the “p, CFC Re-exposure Freezing (%), (R,S)-ketamine (30 mg/kg) vs. Prucalopride (3 mg/kg)” value [3, 8] of the same compound?
A: 0.1343

Q: What about the “p, CFC Re-exposure Freezing (%), (R,S)-ketamine (30 mg/kg) vs. Prucalopride (10 mg/kg)” value [3, 8] of the same compound?
A: 0.1023

Q: And the “p, CFC Re-exposure Freezing (%), Saline vs. (R,S)-ketamine” value [3, 8]?
A: 0.0448

Q: And the “p, CFC Re-exposure, (R,S)-ketamine (30 mg/kg) vs. PF04995274 (3 mg/kg)” value [3, 9]?
A: 0.1027

Q: And the “p, CFC Re-exposure, (R,S)-ketamine (30 mg/kg) vs. PF04995274 (10 mg/kg)” value [3, 9]?
A: 0.8015

Q: And the “p, CFC Re-exposure, (R,S)-ketamine (30 mg/kg) vs. Prucalopride (3 mg/kg)” value [3, 9]?
A: 0.1343

Q: And the “p, CFC Re-exposure, (R,S)-ketamine (30 mg/kg) vs. Prucalopride (10 mg/kg)” value [3, 9]?
A: 0.1023

Q: What about the “p, CFC Re-exposure, Saline vs. (R,S)-ketamine” value [3, 9] of the same compound?
A: 0.0448

Q: And the “freezing during CFC training” value ([3]; male 129S6/SvEv, (R,S)-ketamine 30, prucalopride 3 or 10, PF-04995274 3 or 10 mg/kg, 1 week before CFC, vs saline)?
A: comparable levels of freezing

Q: And the “freezing at re-exposure to the training context (learned fear) vs saline” value ([3]; male 129S6/SvEv, single i.p. injection 1 week before CFC, re-exposure 5 days later, 30 mg/kg)?
A: attenuated learned fear

Q: COc1[nH]c2ccc(F)cc2c1C(=O)OCC1CCN(CCNS(C)(=O)=O)CC1.NS(=O)(=O)O [GR125487, 5-Fluoro-2-methoxy-[1-[2-[(methylsulfonyl)amino]ethyl]-4-piperidinyl]-1H-indole-3-methylcarboxylate sulfamate] was tested. Which “RS67333-induced increase in time and percent time spent in the open arms (EPM)” value [4] did it give?
A: prevented

Q: And the “RS67333-induced increase of ambulatory distance in the open arms divided by total distance (EPM)” value [4]?
A: prevented

Q: And the “effect of RS67333 on the latency to feed (NSF)” value [5]?
A: occluded

— patent publication US20220031684A1, “PROPHYLACTIC EFFICACY OF SEROTONIN 4 RECEPTOR AGONISTS AGAINST STRESS” (THE TRUSTEES OF COLUMBIA UNIVERSITY IN THE CITY OF NEW YORK, priority 2019, published 2022)
